Numbers after ± are expanded uncertainties.
Experiments:
[1] = Crystal; DTA
[2] = Molar enthalpy of transition or fusion; details: Crystal; DSC

COc1cc(Cl)nc(N)n1 [2-amino-4-chloro-6-methoxypyrimidine]
Normal melting temperature [1]: 173.80 ± 1.1 °C
Molar enthalpy of transition or fusion [2]: 5.93 ± 0.239 kcal/mol

Source: the NIST ThermoML archive (doi:10.1016/j.jct.2016.10.020)
